Results taken from the supplement of paper PMC10307832.

Key:
Assay in all cases: relative viability (nuclei count vs DMSO), 5 days (fraction); higher = more cells survive
[1] = compound: CCN1CCN(c2ccc(Nc3cc(N(C)C(=O)Nc4c(Cl)c(OC)cc(OC)c4Cl)ncn3)cc2)CC1 [BGJ398] + CC1(C)CCC(c2ccc(Cl)cc2)=C(CN2CCN(c3ccc(C(=O)NS(=O)(=O)c4ccc(N[C@H](CCN5CCOCC5)CSc5ccccc5)c(S(=O)(=O)C(F)(F)F)c4)cc3)CC2)C1 [Navitoclax] (partner 0.5 µM)
Outline: (§1)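 Medians of duplicate plates are given as relative viability. That measure is the nuclei count in treated wells divided by the count in vehicle wells. Counts were taken on 4× images of lung cancer cell lines in 1536-well plates, 5 days after pin-tool dosing the day after seeding with one drug alone or a fixed anchor-drug dose plus five library-drug doses (not always all listed) in √10 steps.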

[2] = compound: CCN1CCN(c2ccc(Nc3cc(N(C)C(=O)Nc4c(Cl)c(OC)cc(OC)c4Cl)ncn3)cc2)CC1 [BGJ398] + C[C@@H](Oc1cc(-c2cnn(C3CCNCC3)c2)cnc1N)c1c(Cl)ccc(F)c1Cl [Crizotinib] (partner 1 µM)
Outline: as §1

[3] = compound: C1=CC2=NC=CN=C2C=C1/C=C/3\C(=O)NC(=O)S3 + Cc1cc(Nc2cc(N3CCN(C)CC3)nc(Sc3ccc(NC(=O)C4CC4)cc3)n2)n[nH]1 [Tozasertib] (partner 0.1 µM)
Outline: as §1

[4] = compound: CCN1CCN(c2ccc(Nc3cc(N(C)C(=O)Nc4c(Cl)c(OC)cc(OC)c4Cl)ncn3)cc2)CC1 [BGJ398] + Nc1nc2[nH]cc(CCc3ccc(C(=O)N[C@@H](CCC(=O)O)C(=O)O)cc3)c2c(=O)[nH]1 [Pemetrexed] (partner 0.2 µM)
Outline: as §1

Cell Line | relative viability ([1]; first compound 0.01 µM) | relative viability ([1]; first compound 0.03162 µM) | relative viability ([1]; first compound 0.1 µM) | relative viability ([1]; first compound 0.3162 µM) | relative viability ([1]; first compound 1 µM) | relative viability ([2]; first compound 0.01 µM) | relative viability ([2]; first compound 0.03162 µM) | relative viability ([2]; first compound 0.1 µM) | relative viability ([2]; first compound 0.3162 µM) | relative viability ([2]; first compound 1 µM) | relative viability ([3]; first compound 0.02 µM) | relative viability ([3]; first compound 0.06325 µM) | relative viability ([3]; first compound 0.2 µM) | relative viability ([3]; first compound 0.6325 µM) | relative viability ([3]; first compound 2 µM) | relative viability ([4]; first compound 0.01 µM) | relative viability ([4]; first compound 0.03162 µM) | relative viability ([4]; first compound 0.1 µM) | relative viability ([4]; first compound 0.3162 µM) | relative viability ([4]; first compound 1 µM)
NCI-H1915 | 0.73 | 0.786 | 0.774 | 0.77 | 0.766 | 0.847 | 0.869 | 0.998 | 0.936 | 0.886 | 0.452 | 0.48 | 0.41 | 0.418 | 0.428 | 0.511 | 0.524 | 0.571 | 0.458 | 0.521
NCI-H596 | 0.96 | 0.645 | 0.698 | 0.73 | 0.614 | 0.935 | 0.843 | 0.883 | 0.944 | 0.794 | 0.934 | 0.951 | 1.1 | 0.733 | 0.902 | 0.424 | 0.476 | 0.439 | 0.477 | 0.431
NCI-H322M | 1.23 | 1.26 | 1.05 | 1.2 | 1.31 | 1.04 | 0.77 | 0.956 | 0.961 | 1.1 | 0.523 | 0.466 | 0.482 | 0.461 | 0.425 | 0.662 | 0.635 | 0.637 | 0.603 | 0.631
NCI-H2228 | 0.728 | 1.04 | 0.998 | 0.893 | 0.867 | 0.433 | 0.64 | 0.319 | 0.252 | 0.347 | 0.302 | 0.228 | 0.234 | 0.21 | 0.221 | 0.312 | 0.367 | 0.377 | 0.342 | 0.299
NCI-H647 | 0.97 | 1.26 | 1.4 | 1.14 | 1.01 | 1.03 | 1.01 | 1.16 | 1.06 | 1.03 | 0.398 | 0.258 | 0.423 | 0.268 | 0.357 | 0.179 | 0.16 | 0.19 | 0.201 | 0.185
SK-MES-1 | 1.27 | 1.32 | 1.24 | 1.33 | 1.24 | 0.944 | 1.05 | 1 | 0.942 | 0.967 | 0.894 | 0.884 | 0.998 | 0.965 | 0.934 | 0.84 | 0.999 | 0.888 | 1.02 | 0.898
NCI-H2170 | 0.505 | 0.572 | 0.586 | 0.671 | 0.765 | 1.09 | 1.22 | 1.29 | 1.25 | 1.31 | 0.6 | 0.697 | 0.689 | 0.734 | 0.795 | 0.273 | 0.254 | 0.283 | 0.276 | 0.247
NCI-H2085 | 1.09 | 1.13 | 1.15 | 1.23 | 1.05 | 0.836 | 0.871 | 1.05 | 0.892 | 1.01 | 0.813 | 0.874 | 0.848 | 0.848 | 0.731 | 0.927 | 0.845 | 0.885 | 0.978 | 1.04
SW 1573 | 0.82 | 1.22 | 1.05 | 0.981 | 0.91 | 0.878 | 0.802 | 0.773 | 0.808 | 0.767 | 0.192 | 0.201 | 0.183 | 0.183 | 0.204 | 0.817 | 0.833 | 0.83 | 0.748 | 0.944
NCI-H441 | 0.577 | 0.795 | 0.501 | 0.604 | 0.722 | 0.601 | 0.841 | 0.778 | 0.691 | 0.783 | 0.661 | 0.828 | 0.743 | 0.62 | 0.366 |  | 0.234 | 0.243 | 0.251 | 0.288
LOU-NH91 | 0.685 | 0.402 | 0.668 | 0.427 | 0.701 | 0.724 | 0.506 | 0.688 | 0.569 | 0.728 | 0.619 | 0.739 | 0.634 | 0.63 | 0.588 | 0.375 | 0.407 | 0.408 | 0.376 | 0.381
NCI-H3122 | 0.989 | 1.01 | 1.06 | 0.984 | 1.05 | 0.229 | 0.271 | 0.282 | 0.295 | 0.272 | 0.401 | 0.418 | 0.331 | 0.38 | 0.4 | 0.206 | 0.193 | 0.192 | 0.188 | 0.202
NCI-H460 | 1.01 | 1.11 | 1.4 | 1.12 | 1.33 | 0.59 | 0.861 | 1.02 | 0.892 | 0.826 | 0.411 | 0.262 | 0.441 | 0.392 | 0.395 | 0.0621 | 0.0761 | 0.0595 | 0.0608 | 0.0687
NCI-H1734 | 0.836 | 0.878 | 0.81 | 0.832 | 0.826 | 0.611 | 0.647 | 0.719 | 0.594 | 0.554 | 0.256 | 0.262 | 0.317 | 0.248 | 0.278 | 0.405 | 0.403 | 0.405 | 0.378 | 0.415
LXF-289 | 0.933 | 0.905 | 0.892 | 0.873 | 0.831 | 0.817 | 0.764 | 0.761 | 0.705 | 0.637 | 0.186 | 0.147 | 0.185 | 0.185 | 0.168 | 0.923 | 0.849 | 0.88 | 0.801 | 0.923
